# From patent publication US20200078404A1, “COMBINATION OF A CELL THERAPY AND AN IMMUNOMODULATORY COMPOUND” (Juno Therapeutics, Inc., priority 2017, published 2020)
# Test system: OPM2-ffluc tumor
# Test: OPM-2 human multiple myeloma orthotopic xenograft mouse model, Study 1
# Assay type: in vivo
# Protocol: Mice (NOD.Cg-Prkdc^scidIL-2rg^tm1Wjl/SzJ mice (NSG; Jackson Labs)) were injected intravenously (i.v.) with 2×10^6 OPM2 (multiple myeloma) cells transfected with firefly luciferase (OPM2-ffluc). Tumor engraftment was allowed to occur for 13 days prior to staging (14 days before CAR-T cell administration) and verified using bioluminescence imaging.
# Table E1 summarizes the dosing regimens.
# Tumor burden in animals among the various groups was monitored by bioluminescence imaging up to day 39 post-CAR+ T cell dosing. For bioluminescence imaging, mice received intraperitoneal (i.p.) injections of luciferin substrate (CaliperLife Sciences, Hopkinton, Mass.) resuspended in PBS (15 μg/g body weight). The total flux (photon/s) was determined at each time point.
# Table E2 lists median survival (ms) (as assessed at day 56 post-CAR+ T cell administration) and number of mice in group surviving until day 56-post-CAR+ T cell administration, for each animal group assessed in this study.
smiles,measurement,setting,value
"Nc1cccc2c1CN(C1CCC(=O)NC1=O)C2=O (stereo not shown) [lenalidomide, 3-(4-amino-1-oxo-1,3-dihydro-2H-isoindol-2-yl)piperidine-2,6-dione]",survival effects,"added to anti-BCMA CAR+ T cells, high and low doses, day −1 or delayed dosing",improved survival effects
same,# animals surviving day 56 post-CART,"lenalidomide 10 mg/kg i.p. daily from day −1 (A) or day 14 (B), cell dose hi 1.00E+06, low 5.00E+05",0/8
same,Median Survival (assessed at day 6),"lenalidomide 10 mg/kg i.p. daily from day −1 (A) or day 14 (B), cell dose hi 1.00E+06, low 5.00E+05, listed as lenalidomide (A)",28
same,Median Survival (assessed at day 6),"lenalidomide 10 mg/kg i.p. daily from day −1 (A) or day 14 (B), cell dose hi 1.00E+06, low 5.00E+05, listed as lenalidomide (B)",25
same,tumor growth or tumor burden,lenalidomide alone,not observed to reduce tumor growth or tumor burden
same,tumor growth and tumor burden,"lenalidomide from day 14 added to CAR-T cells, both doses",trend towards slower tumor growth and reduced tumor burden
same,tumor growth and tumor burden (bioluminescence),"lenalidomide from day −1 added to CAR+ T cells, both doses",slower tumor growth and reduced tumor burden
